Test results reported in ChEMBL document CHEMBL4261595, “Discovery of 3-(4-sulfamoylnaphthyl)pyrazolo[1,5-a]pyrimidines as potent and selective ALK2 inhibitors” (Bioorg Med Chem Lett, 2018).
Values after ≈ are worked out from the molar mass of the structure shown.

Experiments:
[1] = rat, microsomes
[2] = Permeability of the compound by PAMPA; format: ADME; details: read-out: permeability
physchem = details: aqueous, pH 7.4
[3] = AUC (0 to infinity) in C57BL/6 mouse at 3 mg/kg, po; format: ADME, organism-based; set-up: dose 3 mg/kg, time infinity, route oral; details: in vivo
[4] = Cmax in C57BL/6 mouse at 3 mg/kg, po; format: ADME, organism-based; set-up: dose 3 mg/kg, route oral; details: in vivo
[5] = Oral bioavailability in C57BL/6 mouse at 3 mg/kg; format: ADME, organism-based; details: in vivo
[6] = Clearance in C57BL/6 mouse plasma at 3 mg/kg, iv; format: ADME, organism-based
[7] = Half life in C57BL/6 mouse at 3 mg/kg, iv; format: ADME, organism-based; details: in vivo
[8] = Volume of distribution at steady state in C57BL/6 mouse at 3 mg/kg, iv; format: ADME, organism-based; details: in vivo, read-out: Vdss
[9] = Half life in C57BL/6 mouse at 3 mg/kg, po; format: ADME, organism-based; details: in vivo
[10] = AUC (0 to infinity) in C57BL/6 mouse at 3 mg/kg, iv; format: ADME, organism-based; set-up: dose 3 mg/kg, time infinity, route intravenous; details: in vivo

Row | Compound | t1/2 [1] [min] | Papp [2] [×10⁻⁶ cm/s] | solubility (physchem) [µg/mL] | further results
1 | NS(=O)(=O)c1ccc(-c2cnn3cc(-c4ccc(C5CCNCC5)cc4)cnc23)c2ccccc12 | > 30 | 78.6 | < 1 | –
2 | CC(C)(CN1CCCCC1)Oc1ccc(-c2cnc3c(-c4ccc(S(N)(=O)=O)c5ccccc45)cnn3c2)cc1 | 6.1 | – | < 1 | –
3 | NC1(c2ccc(-c3cnc4c(-c5ccc(S(N)(=O)=O)c6ccccc56)cnn4c3)cc2)CCC1 | – | – | < 1 | –
4 | CN(C)CCOc1ccc(-c2cnc3c(-c4ccc(S(N)(=O)=O)c5ccccc45)cnn3c2)cn1 | 9.4 | 8.8 | < 1 | –
5 | NS(=O)(=O)c1ccc(-c2cnn3cc(-c4ccc(N5CCNCC5)nc4)cnc23)c2ccccc12 | > 30 | 8.3 | 1.4 (≈ 2.88 µM) | –
6 | NS(=O)(=O)c1ccc(-c2cnn3cc(-c4ccc(CN5CCCC5)cc4)cnc23)c2ccccc12 | 21.9 | 467 | 8 (≈ 16.5 µM) | –
7 | CC(C)(N)c1ccc(-c2cnc3c(-c4ccc(S(N)(=O)=O)c5ccccc45)cnn3c2)cc1 | > 30 | 9.4 | 10.6 (≈ 23.2 µM) | –
8 | CC(c1ccc(-c2cnc3c(-c4ccc(S(N)(=O)=O)c5ccccc45)cnn3c2)cc1)N1CCCC1 (stereo not given) | 22.8 | – | 7 (≈ 14.1 µM) | AUC(0-inf) [3]: 782 ng·h/mL; Cmax [4]: 67 ng/mL; bioavailability [5]: 24%; clearance [6]: 16 mL/min/kg; half-life [7]: 210 min; Vd [8]: 4.6 L/kg; half-life [9]: 258 min; AUC(0-inf) [10]: 3220 ng·h/mL
9 | NS(=O)(=O)c1ccc(-c2cnn3cc(-c4ccc(OCCN5CCCC5)cc4)cnc23)c2ccccc12 | > 30 | 317 | 33 (≈ 64.2 µM) | –
10 | NS(=O)(=O)c1ccc(-c2cnn3cc(-c4ccc(OCCN5CCCCC5)nc4)cnc23)c2ccccc12 | 20.9 | 365 | < 1 | –
11 | CC(N)c1ccc(-c2cnc3c(-c4ccc(S(N)(=O)=O)c5ccccc45)cnn3c2)cc1 (stereo not given) | – | – | 7.6 (≈ 17.1 µM) | –
